Source: US5583155A, “6-amino-1,2-benzopyrones useful for treatment of viral diseases” (Octamer, Inc., priority 1994, dated 1996)
Values joined by “and” are separate entries in the source; they are usually repeats but may differ in a detail not shown here. Identical values can stand only once.

Columns and labels:
ADPRT [1] = details: Proc. Nat. Acad. Sci. (USA), 84:1107 (1987); cited from earlier work
ADPRT [2] = test: Binding to ADPRT; details: 6-nitroso oxidation product
CMV = details: cited from earlier work
oris DNA of HSV-1 = test: Nitrocellulose filter binding to HSV-1 oris DNA; details: input oris DNA 8,000/sample
Procedure: This example illustrates HSV DNA binding at the site of replication (oris) initiation at ADPRT.
The 230 bp XbaI-HindIII oris DNA of HSV-1 was isolated from plasmid pKC4 and radioactively labeled with [32P]dCTP by fill-in reaction with the Klenow form of E. coli DNA polymerase. Labeled DNA fragments were purified as previously described in J. Virol., 63:2773 (1989).
Nitrocellulose filters (Schleicher and Schuell, BA 85, […] pore size, 27 mm diameter) were presoaked for 60 minutes in binding buffer (250 mM Tris-Cl, pH 8.0, 100 mM MgCl2, 1000 mM NaCl, 0.6 mM DTT, 0.1 mg/ml BSA, 0.1 mM PMSF and 0.1 mM TLCK). 5 ul of [32P] oris DNA was added to 210 ul of cold binding buffer and incubated for 1 minute. 2 ul of either ADPRT (200 ng) or HSV-1 infected Vero cell extract (Vero(F), 2 ug) was then added to the DNA solution and incubated for 10 minutes at 25° C. Samples were transferred to ice, followed by filtration through the nitrocellulose filters. The filters were then washed four times with cold wash buffer containing 25 mM Tris-Cl, pH 8.0, 10 mM MgCl2, 0.5 mM DTT, 100 mM NaCl, 5% DMSO. The filters were dried and the amount of radioactive material bound to the filters was determined by scintillation spectrophotometry.

With `O=c1ccc2ccccc2o1` [1,2-benzopyrone] as the compound, how does the “inhibition of ADPRT” value (ADPRT [1]) read?
Its value is “inhibitory ligand”.

With `O=Nc1ccc2oc(=O)ccc2c1` [6-NBP, 6-nitroso-1,2-benzopyrone] as the compound, how does the “binding to zinc-fingers of ADPRT” value (ADPRT [2]) read?
Its value is “binds specifically and with high affinity”.

Which “CMV sensitivity” value (CMV) does the source give for `Nc1nc2c(ncn2COCCO)c(=O)[nH]1` [acyclovir] here?
Its value is “CMV is resistant to acyclovir”.

What does the source list for ADPRT?
% Specific Bound (oris DNA of HSV-1): 78.6% and ~80%; CPM Bound to Filter (oris DNA of HSV-1; average of duplicate samples): 6384 CPM
